# Assay results as given in BindingDB's records for patent US11111252 (Duquesne University of The Holy Spirit, 2021).
# Target: T1, Dihydrofolate reductase (Pneumocystis jirovecii, UniProt Q9UUP5)
# T1 sequence (Q9UUP5 whole entry): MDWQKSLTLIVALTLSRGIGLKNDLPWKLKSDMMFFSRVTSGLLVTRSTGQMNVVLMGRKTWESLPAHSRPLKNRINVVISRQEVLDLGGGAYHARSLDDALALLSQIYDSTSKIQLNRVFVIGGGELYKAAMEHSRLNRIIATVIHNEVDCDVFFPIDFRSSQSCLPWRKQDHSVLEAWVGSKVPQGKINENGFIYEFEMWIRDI
# Assay: Kinase Inhibition Assay
row,Structure (SMILES),IC50 [nM]
1,"COc1ccc(Sc2sc3nc(N)nc(N)c3c2C)cc1OC [US11111252, Compound 1]",260
2,"COc1ccc(Sc2c(C)c3c(N)nc(N)nc3n2C)cc1OC [US11111252, Compound 9]",234
